Assay results as given in US7838491B2, “Self-assembly and mineralization of peptide-amphiphile nanofibers” (Northwestern University, priority 2001, dated 2010).
Square brackets hold non-standard residues; d marks the D form. Peptide text beside a SMILES is read from it. * marks the point of attachment. Palmitoyl = CCCCCCCCCCCCCCCC(=O)*; pS = N[C@@H](COP(=O)(O)O)C(=O)O

Columns and labels:
Format in all cases: physicochemical
[1] = solubility of the PA in water
Protocol: (§1) After synthesis (see, example 10), the PA of FIG. 1 (characterized by ^1H NMR and MALDI-TOF MS: [M-H]^−1=1333) was treated with dithiothreitol (DTT) at a pH of 8 to reduce all cysteine residues to free thiols. […] Solutions more concentrated than 2.5 mg/ml form birefringent gels in water that are self-supporting upon inversion of the container. […] Negatives were digitized in the Umax PowerLook scanner with resolution 1200 dpi. The average thickness of the PA fibers was determined by two different procedures. First the Fourier transform of the images and following measurements of the distances between the peaks were performed in the NIH Image […] program. The second approach applied was averaging technique based on the cross-correlation method, widely used in single particle reconstruction using the EMAN […] program. For each data set 1200-1300 individual boxes were selected.

[2] = pH triggered self-assembly and gelation
Protocol: as §1
Upon lowering the pH below 4 with HCl the material self-assembles; when the pH is brought back to neutrality with KOH it disassembles. This pH triggered self-assembly and gelation allows the material to respond to its environment and thus may have applications in controlled release of molecules (W. A. Petka, J. L. Hardin, K. P. McGrath, D. Wirtz, D. A. Tirrell, Science 281, 389-392 (1998)).

[3] = TEM / cryo-TEM of self-assembled fibers
Protocol: as §1

[4] = stability of fibers in alkaline solution (pH 8)
Source text: Following self-assembly of PA molecules into fibers, the cysteine thiol groups were oxidized by treatment with 0.01M iodine. […] Importantly, the covalent capture process of this invention can be easily reversed by treating the fibers with a mild reducing agent such as DTT. […] Together with the controlled self-assembly, reversible cross-linking provides a highly dynamic system which can interconvert between discrete molecules, self-assembled supramolecular fibers, covalently captured polymeric fibers and back again to single small molecules depending solely on the environment in which the material is placed.

With CCCCCCCCCCCCCCCC(=O)N[C@@H](CS)C(=O)N[C@@H](CS)C(=O)N[C@@H](CS)C(=O)N[C@@H](CS)C(=O)NCC(=O)NCC(=O)NCC(=O)N[C@@H](COP(=O)(O)O)C(=O)N[C@@H](CCCNC(=N)N)C(=O)NCC(=O)N[C@@H](CC(=O)O)C(=O)O [PA 1, CCCCGGGS(P)RGD] (Palmitoyl-CCCCGGG[pS]RGD-OH) the solubility upon acidification ([1]; solution below pH 4) was “rapidly becomes insoluble”, the solubility ([1]; water, pH 8, after DTT reduction of cysteines) was greater than 50 mg/mL and the “concentration dependence of fiber formation” value ([2]; 0.01 mg/ml to 50 mg/ml) was “concentration independent”. The “behaviour when pH is brought back to neutrality” value ([2]; KOH) was “disassembles”, the “concentration at which solutions form self-supporting birefringent gels” value ([2]; in water) was greater than 2500 µg/mL and the “pH at which the material self-assembles” value ([2]; pH lowered with HCl) was “below 4”. For the same compound, the fiber diameter ([3]; TEM, positively and negatively stained dried fibers) was 6.0±1 nm, the fiber length ([3]; cryo-TEM of gels) was “up to several microns” and the fiber diameter ([3]; cryo-TEM, native hydrated state) was 7.6±1 nm. For the same compound, the “stability to alkaline solutions” value [4] was “disassemble within minutes”.
